Test results from US20170082610A1, “METHOD FOR PREDICTING TOXICITY OF A COMPOUND BASED ON NUCLEAR FACTOR-kB TRANSLOCATION” (priority 2014, published 2017).
Like-named read-outs stand apart in the source and are kept apart here.

Tests used:
NF-κB p65 [1] = assay: HCS assay of compound-induced NF-κB p65 nuclear translocation in HPTC (Example 2); type: cell-based, human
NF-κB p65 [2] = assay: HCS assay of compound-induced NF-κB p65 nuclear translocation in HPTC1 (Example 3); type: cell-based, human; settings: for nuclear translocation of NF-κB (positive control sample): FIG. 9
Excerpt: (§1) No. 58488852 (HPTC 1) and Lot. No. 61247356 (HPTC10), were bought from the American Type Culture Collection (ATCC, Manassas, Va., USA). HPTC6 were isolated from a nephrectomy sample obtained from the National University Health System (NUHS, Singapore). Only normal tissue without pathological changes was used, which was selected by a pathologist. […] No. PCS-400-030) supplemented with Renal Epithelial Cell Growth Kit (ATCC, Cat. No. PCS-400-040) and 1% Penicillin Streptomycin (Gibco, Cat. No. 15140-122). […] HK-2 and LLC-PK1cells were purchased from ATCC. These two cell lines were maintained in Dulbecco's Modified Eagle Medium (DMEM) supplemented with 10% fetal bovine serum (FBS) and 1% Penicillin Streptomycin. Approval for the work with human kidney samples (DSRB-E/11/143) and cell types (NUS-IRB Ref. Code: 09-[…]) had been obtained. All cells were incubated in a humidified atmosphere at 37° C. and 5% CO2. Cells were seeded into 384-well black plates with transparent bottom (Greiner, Cat. No. 781091). HPTC1 and HPTC6 were seeded at 50,000 cells/cm^2; HPTC10 were seeded at 100,000 cells/cm^2; HK-2 cells were seeded at 20,000 cells/cm^2 and LLC-PK1 cells were seeded at 10,000 cells/cm^2 to adjust for the different growth kinetics of the different cell types and batches used. All cells were cultivated for 3 days to achieve the formation of a differentiated simple epithelium before drug treatment overnight (16 hours). The concentrations of the 43 drugs screened were 1000, 500, 250, 125, 63, 16 and 1.6 μg/mL. Puromycin at 100 μg/mL and TNF-α at 100 ng/mL were used as positive controls. […] The images were automatically analysed by using MetaXpressTM image analysis software version 2.0 using the Translocation-Enhanced Module. […] The intensity ratios of the outer nuclear area versus the inner nuclear area were automatically quantified by the MetaXpressTM image analysis software (version 2.0). The final quantitative results for each data point were the average results from 36 images (4 replicates (wells) with 9 multi-channel images per well). […]

HPTC1 = assay: Cell death in HPTC1 by HCS, based on counts of cell nuclei (Example 3); set-up: species or system human; settings: HPTC1, 16 hours, 1.6-1000 μg/mL
Excerpt: as §1, with “CO2.” for “CO2. Cells were seeded into 384-well black plates with transparent bottom (Greiner, Cat. No. 781091). HPTC1 and HPTC6 were seeded at 50,000 cells/cm^2; HPTC10 were seeded at 100,000 cells/cm^2; HK-2 cells were seeded at 20,000 cells/cm^2 and LLC-PK1 cells were seeded at 10,000 cells/cm^2 to adjust for the different growth kinetics of the different cell types and batches used. All cells were cultivated for 3 days to achieve the formation of a differentiated simple epithelium before drug treatment overnight (16 hours). The concentrations of the 43 drugs screened were 1000, 500, 250, 125, 63, 16 and 1.6 μg/mL. Puromycin at 100 μg/mL and TNF-α at 100 ng/mL were used as positive controls.”

[3] = HPTC, 16 hours, 1.6-1000 μg/mL, 96-well plates, HCS images

O=[As]O[As]=O (stereo not shown) [arsenic (III) oxide]
Qualitative analysis of NF-κB translocation (visual inspection) (NF-κB p65 [1]; [3]): positive

bismuth (III) oxide
Qualitative analysis of NF-κB translocation (visual inspection) (NF-κB p65 [1]; [3]): positive

C=CC[C@@H]1/C=C(\C)C[C@H](C)C[C@H](OC)[C@H]2O[C@@](O)(C(=O)C(=O)N3CCCC[C@H]3C(=O)O[C@H](/C(C)=C/[C@@H]3CC[C@@H](O)[C@H](OC)C3)[C@H](C)[C@@H](O)CC1=O)[C@H](C)C[C@@H]2OC [Tacrolimus]
EC50 (compound concentration where nuclear translocation of NF-κB occurred in 50% of cells) (NF-κB p65 [2]; HPTC1, 16 hours, 1.6-1000 μg/mL): relatively low | IC50 (compound concentration where cell death occurred in 50% of cells; counts of cell nuclei) (HPTC1): relatively low

[K+].[K+].[O]=[Cr](=[O])([O-])[O][Cr](=[O])(=[O])[O-] [potassium dichromate]
Qualitative analysis of NF-κB translocation (visual inspection) (NF-κB p65 [1]; [3]): positive

[Cl][Au] [gold (I) chloride]
Qualitative analysis of NF-κB translocation (visual inspection) (NF-κB p65 [1]; [3]): positive

C[n+]1ccc(-c2cc[n+](C)cc2)cc1 [paraquat]
Qualitative analysis of NF-κB translocation (visual inspection) (NF-κB p65 [1]): positive

CC(=O)[O-].CC(=O)[O-].[Pb+2] [lead acetate]
Qualitative analysis of NF-κB translocation (visual inspection) (NF-κB p65 [1]; [3]): positive

TNF-α
nuclear translocation of NF-κB (positive control sample) (NF-κB p65 [2]; HPTC1, 100 ng/mL, 16 hours): displayed nuclear translocation of NF-κB

COc1ccc(C[C@H](N)C(=O)N[C@H]2[C@@H](O)[C@H](n3cnc4c(N(C)C)ncnc43)O[C@@H]2CO)cc1 [puromycin]
nuclear translocation of NF-κB (positive control sample) (NF-κB p65 [2]; HPTC1, 16 hours): displayed nuclear translocation of NF-κB
